Test results from article PMC8495142 (Drug Design, Development and Therapy, 2021).

Experiments:
CYP2D6 = conditions: in vitro; cited from earlier work
[1] = type: in vitro ADME, beagle dog; conditions: all four storage conditions, 2.5, 50 and 150 ng/mL
CYP3A = conditions: in vitro; cited from earlier work

Stability in beagle dog plasma (in words) [1]: stable
SMILES: CC[C@@H]1CN(C(=O)NCC(F)(F)F)C[C@@H]1c1cnc2cnc3[nH]ccc3n12 [Upadacitinib]
Metabolism by CYP2D6 (CYP2D6): a small part by CYP2D6
Metabolism by CYP3A (CYP3A): mainly metabolized by CYP3A
